Earlier results in patent publication US20250255804A1, “LIQUID INJECTABLE COMPOSITIONS OF LURBINECTEDIN” (DR. REDDY’S LABORATORIES LIMITED, priority 2024, published 2025).

Settings: solubility increases at acidic pH

For `COc1ccc2[nH]c3c(c2c1)CCN[C@]31CS[C@@H]2c3c(OC(C)=O)c(C)c4c(c3[C@H](COC1=O)N1[C@@H]2[C@H]2c3c(cc(C)c(OC)c3O)C[C@@H]([C@@H]1O)N2C)OCO4` [lurbinectedin, Lurbinectedin], the solubility in water is listed as “insoluble or practically insoluble in water”.
